Experimental findings from patent US20250281610A1, “P2RY2 ACTIVITY MODULATORS” (Deutsches Krebsforschungszentrum Stiftung des öffentlichen …, priority 2022, published 2025) are described below.

Data set [1] relates to CEA-specific CAR transduced T cells co-cultured with SW480 cells. Description: T cell activation in co-culture of CEA-specific CAR-T cells with SW480 cells. The data set is classed as cell-based, human. Conditions: 40 μM ATP, 200 μM ATPγS, 10 μM Diquafosol, 5 μM Denufosol, 24 hours (FIG. 19). The protocol:
FIG. 19. Effects of P2RY2 agonist and P2RY2 antagonist on T cell activity in T cell-cancer cell co-cultures. T cells transduced with a CEA-specific CAR (CAR-T) were co-cultured with genetically edited SW480 cells for 24 hours in the absence or presence of 40 μM ATP, 200 μM ATPγS, 10 μM Diquafosol, 5 μM Denufosol and 10 μM AR-C 118925XX (AR-C). Control cells: SW480 cells transduced with non-targeting sgRNA and Cas9 (gNT); P2RY2 deficient cells: SW480 cells transduced with P2RY2-targeting sgRNA and Cas9 (gP2RY2-3, gP2RY2-4); B7-H3 (CD276) deficient cells: SW480 cells transduced with B7-H3-targeting sgRNA and Cas9 (gCD276-1); P2RY2 and B7-H3 double deficient cells: SW480 cells transduced with P2RY2-targeting sgRNA, B7-H3-targeting sgRNA, and Cas9 (gCD276-1 gP2RY2-3 DKO, gCD276-1 gP2RY2-4 DKO); P2RY2 overexpression cells: SW480 cells transduced with the open reading frame of P2RY2 (P2RY2-OE); B7-H3 overexpression cells: SW480 cells transduced with the open reading frame of CD276 (CD276-OE). Transduced cancer cells were selected by antibiotics according to antibiotic resistance genes carried by the lentiviral constructs. Flow cytometry analysis of expression of CD25 and CD69 and production of IFNγ within the CD3+CD8+ or CD3+CD4+ cell population is shown (values indicate the percentages of positive cells).
MART-1 specific T cells were generated as described (Mezzadra et al., Nature 549, 106-110 (2017); Jorritsma et al., Blood 110 (10): 3564-3572. (2007)). To generate CD33-specific chimeric antigen receptor (CAR) T cells and CEA-specific CAR-T cells, a CD33Hul95-CD28Z CAR (described in WO 2019/178382) cassette and MFE-23 (described in US20050147614A1)-CD28Z CAR were separately cloned into retroviral vectors, and the resulting virus was used to transduce T cells as described (Mezzadra et al., Nature 549, 106-110 (2017); Jorritsma et al., Blood 110 (10): 3564-3572. (2007)).
The open reading frames of transcripts of P2RY2 (ENST00000393597.7) or CD276 (ENST00000318443.10), were ordered as a codon optimized gBlock Gene Fragment (Integrated DNA Technologies or Twist Bioscience) and cloned into a lentiviral vector containing a blasticidin selection cassette. Constructs were verified by Sanger sequencing.
(§1) MART1-specific CD8+ T cells and MART1 epitope-expressing cancer cells were mixed at a ratio of 1:16 to 1:1. CD33 CAR-T cells and CD33 expressing THP-1 cells were mixed at a ratio of 1:16 to 1:4. CEA CAR-T cells and CEA expressing SW480 cells were mixed at a ratio of 1:1. Next, cells were centrifugated at 1,600 g for 3 min and incubated at 37° C. and 5% CO2 for 12-72 hours. T cell activation was assessed by surface staining with anti-CD137-BV421 (4-1BB, Biolegend), anti-CD137-PE/Cy7 (4-1BB, Biolegend), anti-CD69-APC/Fire™ 750 (FN50, Biolegend), anti-CD25-AF700 (BC96, Biolegend), anti-CD25-APC (BC96, Biolegend) antibodies and intracellular staining with anti-IL-2-PE/Cy7 (MQ1-17H12, Biolegend), anti-IFN-7-BV421 (4S.B3, Biolegend), anti-TNF-α-BV785 (MAb11, Biolegend), anti-TNF-α-APC (MAb11, Biolegend) antibodies, followed by flow cytometry analysis. For intracellular staining, brefeldin A (Biolegend) was added to the cell culture medium 4 h before cells were harvested. The viability of cancer cells that grow in suspension including THP-1 cells was assessed by flow cytometry-based absolute cell counting using AccuCount beads (Spherotech). For adherent cancer cells including BxPC3, MIA PaCa-2, MDA-MB-231 and MCF7, the cell viability was quantified using CellTiter-Blue Cell Viability Assay (Promega).

The test system of data set [2] is B7-H3. Description: Flow cytometry analysis of B7-H3 expression after ATP or UTP stimulation. The data set is classed as cell-based, human. Particulars: for B7-H3 expression: P2RY2 proficient cells (THP-1, FIG. 3) stimulated with ATP or UTP for 24 hours. An excerpt: FIG. 2. Flow cytometry analysis of B7-H3 expression in wildtype (WT) and P2RY2-deficient bulk THP-1, U937, KBM7, and K562 cells (P2RY2-3 KO and P2RY2-4 KO) in the absence or presence of ATP. Values indicate MFI relative to untreated WT cells.
FIG. 3. Flow cytometry analysis of B7-H3 expression in THP-1 cells in the absence or presence of ATP. Values indicate MFI relative to untreated cells.
THP-1 cells, U937 cells, K562 cells, and KBM7 cells were transduced with a lentiviral vector encoding Cas9 along with a Blasticidin S resistance cassette ([…] deaminase). One day after the transduction, cells were selected with 50 microgram/milliliter Blasticidin S Hydrochloride for […]. Next, surviving cells were transduced with one of the lentiviral vectors encoding sgRNA targeting the sequences 5′-[…]-3′ (SEQ ID NO:6) and 5′-[…]-3′ (SEQ ID NO:7) on the coding strand of P2RY2 gene, along with a puromycin resistance cassette (puromycin N-acetyltransferase). One day after the transduction, cells were selected with 2 microgram/milliliter Puromycin dihydrochloride for 48-96 hours. Selected cells were expanded, subjected to genomic DNA isolation, and analyzed for deleterious editing of the P2RY2 locus by PCR (using primers 5′-[…]-3′ (SEQ ID NO:8) and 5′-[…]-3′ (SEQ ID NO:9)) and Sanger sequencing of the PCR products using primer 5′-[…]-3′ (SEQ ID NO:8) for the sgRNA(5′-[…]-3′, SEQ ID NO:6)) transduced cell and 5′-[…]-3′ (SEQ ID NO:9) for the sgRNA(5′-[…]-3′, SEQ ID NO:7) transduced cell.
The polyclonal cells transduced with Cas9 and sgRNA targeting P2RY2, and wildtype cells were cultured in the absence or presence of ATP or UTP (ligands of P2RY2, Sigma) for 24 hours, stained with anti-B7-H3 antibody and analyzed by flow cytometry.

The subject of data set [3] is THP-1 cells. Briefly: Viability of THP-1 cells in co-culture with CD33-specific CAR-T cells (flow cytometry-based cell counting). Details: species or system human. Conditions: 100 uM Diquafosol, 24 hours, co-culture with CD33-specific CAR-T cells (FIG. 9). The protocol:
FIG. 8. Effects of P2RY2 antagonist on T cells and cancer cells in T cell-cancer cell co-cultures. T cells transduced with CD33-specific CAR (CAR-T) were co-cultured with genetically edited THP-1 cells in the absence or presence of 5 μM AR-C 118925XX (AR-C) for 6-24 hours. Control cells: THP-1 cells transduced with non-targeting sgRNA and Cas9 (gNT); P2RY2 deficient cells: THP-1 cells transduced with P2RY2-targeting sgRNA and Cas9 (gP2RY2-3, gP2RY2-4); B7-H3 (CD276) deficient cells: THP-1 cells transduced with B7-H3-targeting sgRNA and Cas9 (gCD276-1); P2RY2 and B7-H3 double deficient cells: THP-1 cells transduced with P2RY2-targeting sgRNA, B7-H3-targeting sgRNA, and Cas9 (gCD276-1 gP2RY2-3 DKO, gCD276-1 gP2RY2-4 DKO); P2RY2 overexpression cells: THP-1 cells transduced with the open reading frame of P2RY2 (P2RY2-OE); B7-H3 overexpression cells: THP-1 cells transduced with the open reading frame of CD276 (CD276-OE). […]
FIG. 9. […] Control cells THP-1 cells transduced with non-targeting sgRNA and Cas9 (Ctrl.); P2RY2 overexpression cells: THP-1 cells transduced with the open reading frame of P2RY2 (P2RY2-OE). […]
The open reading frames of transcripts of P2RY2(ENST00000393597.7) or CD276(ENST00000318443.10), were ordered as a codon optimized gBlock Gene Fragment (Integrated DNA Technologies or Twist Bioscience) and cloned into a lentiviral vector containing a blasticidin selection cassette. […]
MART1-specific CD8+ T cells and MART1 epitope-expressing cancer cells were mixed at a ratio of 1:16 to 1:4. […] T cell activation was assessed by surface staining with anti-CD137-BV421 (4-1BB, Biolegend), anti-CD69-APC/Fire™ 750 (FN50, Biolegend), anti-CD25-AF700 (BC96, Biolegend) antibodies and intracellular staining with anti-IL-2-PE/Cy7 (MQ1-17H12, Biolegend), anti-IFN-7-BV421 (4S.B3, Biolegend), anti-TNF-α-BV785 (MAb11, Biolegend) antibodies, followed by flow cytometry analysis. […] The viability of cancer cells that grow in suspension including THP-1 cells was assessed by flow cytometry-based absolute cell counting using AccuCount beads (Spherotech). […]
(A flow cytometer gives signals particle by particle.)

The subject of data set [4] is BxPC3 cells. Briefly: Viability of BxPC3 cells in co-culture with MART-1-specific TCR-T cells (CellTiter-Blue). The data set is classed as cell-based, human. Particulars: single agent: 5 μM AR-C, 10 μg/ml atezolizumab or 10 μg/ml durvalumab, 6-24 hours (FIG. 11).
Description: FIG. 11. […] Untreated cells served as the control.
MART-1 specific T cells were generated as described (Mezzadra et al., Nature 549, 106-110 (2017); Jorritsma et al., Blood 110 (10): 3564-3572. (2007)). To generate CD33-specific chimeric antigen receptor (CAR) T cells, a CD33Hul95-CD28Z CAR (described in WO 2019/178382) cassette was cloned into a retroviral vector, and the resulting virus was used to transduce T cells as described (Mezzadra et al., Nature 549, 106-110 (2017); Jorritsma et al., Blood 110 (10): 3564-3572. (2007)).
as §1, with “to” for “to 1:1. CD33 CAR-T cells and CD33 expressing THP-1 cells were mixed at a ratio of 1:16 to”, “1:4.” for “1:4. CEA CAR-T cells and CEA expressing SW480 cells were mixed at a ratio of 1:1.”, “Biolegend),” for “Biolegend), anti-CD137-PE/Cy7 (4-1BB, Biolegend),”, “anti-CD25-AF700” for “anti-CD25-AF700 (BC96, Biolegend), anti-CD25-APC”, “anti-TNF-α-BV785” for “anti-TNF-α-BV785 (MAb11, Biolegend), anti-TNF-α-APC”, “BxPC3” for “BxPC3, MIA PaCa-2, MDA-MB-231”
On the technique in general: Alamar Blue is a resazurin reagent that responds to reducing activity.

Regarding `Nc1ncnc2c1ncn2[C@@H]1O[C@H](COP(=O)(O)OP(=O)(O)OP(=O)(O)O)[C@@H](O)[C@H]1O` [ATP], the T cell activation entry in data set [1] is given as “repressed”. Moreover, the “ATP-induced B7-H3 surface expression upon P2RY2 disruption” value in data set [2] (P2RY2-deficient THP-1, U937, KBM7, K562 cells, presence of ATP (FIG. 2)) is recorded as “abrogated”. Further, in data set [2], the B7-H3 expression result is reported as “increased B7-H3 expression in a dose-dependent manner”. Take `Nc1ncnc2c1ncn2[C@@H]1O[C@H](COP(=O)(O)OP(=O)(O)OP(O)(O)=S)[C@@H](O)[C@H]1O` [Adenosine-5′-(γ-thio)-triphosphate]: the T cell activation result in data set [1] is listed as “repressed”. Same read-out and setting: then `Nc1ccn([C@H]2C[C@H](O)[C@@H](COP(=O)(O)OP(=O)(O)OP(=O)(O)OP(=O)(O)OC[C@H]3O[C@@H](n4ccc(=O)[nH]c4=O)[C@H](O)[C@@H]3O)O2)c(=O)n1` [Denufosol], with “repressed”.

For the molecule `O=c1ccn([C@@H]2O[C@H](COP(=O)(O)OP(=O)(O)OP(=O)(O)OP(=O)(O)OC[C@H]3O[C@@H](n4ccc(=O)[nH]c4=O)[C@H](O)[C@@H]3O)[C@@H](O)[C@H]2O)c(=O)[nH]1` [Diquafosol], the T cell activation entry in data set [1] was “repressed”. The “T cell-mediated cytotoxicity in THP-1 cells” value in data set [3] is reported as “confers resistance”. As to `O=c1ccn([C@@H]2O[C@H](COP(=O)(O)OP(=O)(O)OP(=O)(O)O)[C@@H](O)[C@H]2O)c(=O)[nH]1` [UTP], the B7-H3 expression entry in data set [2] was “increased B7-H3 expression in a dose-dependent manner”. With “atezolizumab: Blocking antibody of the PD-L1-PD-1 immune checkpoint”, the “viability of BxPC3 cells” value in data set [4] is on record as “reduced”.
